Test results taken from patent US20050267016A1, “CD-10 activated prodrug compounds” (priority 2001, published 2005).
pIC50: −log10 of the molar value. Like-named read-outs stand apart in the source and are kept apart here.

Assays:
[1] = system: 22 RV1 (prostate carcinoma) cells; assay: 3H-thymidine incorporation, 22RV1 cells; assay type: cell-based; details: Homo sapiens, Table 6, 48 hours, read-out: IC50 22RV1 CD10−PSA+
Description: Adherent cells, LNCaP (prostate carcinoma), PC-3 (prostate carcinoma) and 22 RV1 (prostate carcinoma), were cultured in DMEM media containing 10% heat inactivated fetal calf serum (FCS). On the day of the study the cells were detached from the plate with a trypsin solution. The collected cells were washed and resuspended at a concentration of 0.25×10^6 cells/ml in DMEM containing 10% FCS. 100 μl of cell suspension were added to 96 well plates and the plates were incubated for 3 hours to allow the cells to adhere. […] The plates were then incubated for 24 hours, pulsed with 1:0 μl of a 100 μCi/ml ^3H-thymidine and incubated for an additional 24 hours (total incubation time 48 hours). The plates were harvested using a 96 well Harvester (Packard Instruments) and counted on a Packard Top Count Counter. Four parameter logistic curves were fitted to the ^3H-thymidine incorporation as a function of drug molarity using Prism software to determine IC50 values.

[2] = system: human colon carcinoma (HT-29) xenograft; details: 4.0 mg/kg every 7 days for 5 doses
Text: Healthy young male nude mice were subcutaneously injected with 5 million of HT-29 cells.

[3] = in vivo; details: female, ICR, mouse, iv, 10 umol/kg
Description: (§2) Plasma was obtained from three individual animals in each group at 5 minutes, 1, 2, 4, or 6 hr.

[4] = system: normal mice; details: mouse, in vivo; cited from earlier work
[5] = system: LNCaP cell homogenate; assay: Hydrolysis by cultured human cell homogenates; assay type: biochemical
Description: (§1) In addition, 1 μM phosphoramidon, a CD10 inhibitor was included in incubations with LNCaP cell homogenate. To estimate specific activity protein content was estimated in the soluble portion of the homogenates. Results expressed as protein specific activity (FIG. 12) indicate that LNCaP cells which are known to contain CD10 show the greatest Suc-Ile-Ala-Leu-Dox hydrolyzing activity.

[6] = system: PC-3 cell homogenate; assay: Hydrolysis by cultured human cell homogenates; assay type: biochemical; details: 12.5 μg/mL, up to 1 hr, 37° C., pH 7.2
Description: as §1

[7] = system: colorectal carcinoma LS174t xenograft; assay: LS174t xenograft efficacy; assay type: in vivo, nude mice; details: for Mean Day of Survival (MDS): animals whose tumors reached 1.5 g prior to Day 60; for long-term survivors: up to 60 days
Text: There were 4 and 2 long-term survivors in the low and high dose groups, respectively, compared with 0 in the vehicle control group.

[8] = Second single dose Maximum Tolerated Dose (SD-MTD) study, 49 days; details: mouse, in vivo, iv
Description: In a second single dose Maximum Tolerated Dose (SD-MTD) study, groups of five normal ICR mice were administered intravenous bolus doses of Suc-βAla-Leu-Ala-Leu-Dox. The mice were observed daily for 49 days and body weights measured twice weekly.
In a second single dose Maximum Tolerated Dose (SD-MTD) study, groups of five normal ICR mice were administered intravenous bolus doses of Suc-Leu-Ala-Leu-Dox. The mice were observed daily for 49 days and body weights measured twice weekly.
In a second single dose Maximum Tolerated Dose (SD-MTD) study, groups of five normal ICR mice were administered intravenously bolus doses of Suc-Ile-Ala-Leu-Dox. The mice were observed daily for 49 days and body weights measured twice weekly.
In a second single dose Maximum Tolerated Dose (SD-MTD) study, groups of five normal ICR mice were administered intravenous bolus doses of Suc-βAla-Ile-Ala-Leu-Dox. The mice were observed daily for 49 days and body weights measured twice weekly.

[9] = system: Parental CHO cells; assay: Conversion to Leu-Dox or Gly-Dox in cell supernatants, parental CHO; assay type: cell-based, Chinese Hamster; details: 10 μM, 37° C.
Description: To directly ask the question of whether the CD10 expressing cells were capable of cleaving the prodrug, supernatants from CD10 transfected or parental CHO cells treated with the compounds were collected. […] After incubation for 1, 4, and 24 hours, an aliquot of each supernatant was transferred to a 96-well plate and frozen at −20° C. Samples were subsequently thawed and analyzed by reversed phase HPLC (4.6×50 mm 21 TSK Super-ODS column) with fluorescence detection after dilution with 3 volumes of acetonitrile, removal of precipitate by centrifugation, and further dilution into 3 volumes of water. When incubated with Suc-βAla-Leu-Ala-Leu-Dox, there was no detectable metabolism to Leu-Dox observed with the parental cell line while clone 8 (CD10 transfected) generated significant levels of Leu-Dox from Suc-βAla-Leu-Ala-Leu-Dox (Table 27).

[10] = mouse, in vivo, iv, 100 umol/kg
Description: as §2

COc1cccc2c1C(=O)c1c(O)c3c(c(O)c1C2=O)C[C@@](O)(C(=O)CO)C[C@@H]3O[C@H]1C[C@H](N)[C@H](O)[C@H](C)O1 [Doxorubicin, reference compound]
pIC50 [1]: 7.52 | % TGI (Day 14, mean) [2]: 9.3% | % TGI (Day 25, median) [2]: 30.9% | Calculated Mean Day of Survival [2]: 30.0 ± 3.7 days | Extension of Mean Day of Survival over controls [2]: 16.7% | Mean Tumor Weight at Day 14 [2]: 665 ± 103 mg | Median Tumor Weight at Day 25 [2]: 1046 mg | Number of Long Term Survivors [2]: 0/10 | Calculated Mean Day of Survival ([2]; listed as doxorubicin): 30 days | AUC(0-t) [3]: 3.3 µM·h | MTD of doxorubicin alone, estimated from the standard safe efficacious dose [4]: 4 mg/kg

CC[C@H](C)[C@H](NC(=O)CCC(=O)O)C(=O)N[C@@H](C)C(=O)N[C@@H](CC(C)C)C(=O)N[C@H]1C[C@H](O[C@H]2C[C@](O)(C(=O)CO)Cc3c(O)c4c(c(O)c32)C(=O)c2c(OC)cccc2C4=O)O[C@@H](C)[C@H]1O [Suc-Ile-Ala-Leu-Dox]
hydrolyzing activity (protein specific activity) ([5]; LNCaP cell homogenate with 1 μM phosphoramidon): inhibited by phosphoramidon | hydrolyzing activity (protein specific activity) ([5]; LNCaP cell homogenate, 12.5 μg/mL, up to 1 hr, 37° C., pH 7.2): greatest | hydrolysis by homogenate [6]: not

CC[C@H](C)[C@H](NC(=O)CCNC(=O)CCC(=O)O)C(=O)N[C@@H](C)C(=O)N[C@@H](CC(C)C)C(=O)N[C@H]1C[C@H](O[C@H]2C[C@](O)(C(=O)CO)Cc3c(O)c4c(c(O)c32)C(=O)c2c(OC)cccc2C4=O)O[C@@H](C)[C@H]1O [Suc-βAla-Ile-Ala-Leu-Dox]
Mean Day of Survival (MDS) ([7]; 53 mg/kg Q5DX5): 29.7 days | long-term survivors ([7]; 53 mg/kg i.v. Q5DX5, groups of ten): 4 | Mean Day of Survival (MDS) ([7]; 68 mg/kg Q5DX5): 23.4 days | long-term survivors ([7]; 68 mg/kg i.v. Q5DX5, groups of ten): 2

COc1cccc2c1C(=O)c1c(O)c3c(c(O)c1C2=O)C[C@@](O)(C(=O)CO)C[C@@H]3O[C@H]1C[C@H](NC(=O)[C@H](CC(C)C)NC(=O)[C@H](C)NC(=O)[C@H](CC(C)C)NC(=O)CCNC(=O)CCC(=O)O)[C@H](O)[C@H](C)O1 [Suc-βAla-Leu-Ala-Leu-Dox]
MTD [8]: 50 mg/kg | Conversion rate to Leu-Dox or Gly-Dox [9]: 0 mM/h | Percent Conversion/Hour to Leu-Dox or Gly-Dox [9]: 0 Percent Conversion/Hour | Plasma AUC0-6 hr of AL-Dox or AG-Dox* [10]: 3.2 µM·h | Plasma AUC0-6 hr of L-Dox or G-Dox* [10]: 40 µM·h
